Patent US20250325688A1, “ANTIBODY-DRUG CONJUGATE CONTAINING PROTEIN DEGRADATION AGENT BIOACTIVE COMPOUND, METHOD FOR PREPARING SAME, AND USE THEREOF” (Medilink Therapeutics (Suzhou) Co., Ltd., priority 2022, published 2025)
Like-named read-outs stand apart in the source and are kept apart here.

What was measured:
N87 cells = test: Inhibitory activity of payloads on cell proliferation (Cell titer glo); type: cell-based; settings: for EC50: 4 days culture
Method: (§1) The cells were incubated in an incubator at 37° C. overnight. The payload to be tested was dissolved in DMSO, and the resulting solution was aliquoted and cryopreserved at −80° C. The next day, the payload to be tested was subjected to 4-fold dilution to a maximum concentration of 10000 nM for 10 points using the respective complete medium. 100 µL of the diluted drug was added to the cell culture wells (2 replicates per well). After the cells were cultured at 37° C. for 4 days, 50 μL of Cell titer glo substrate was added to each well. After the cells were incubated for 5 min, the fluorescence values were measured.

NUGC4 cells = test: as above; type: cell-based; settings: for EC50: 4 days culture
Method: as §1

MCF7 cells = test: as above; type: cell-based; settings: for EC50: 4 days culture
Method: as §1

IKZF1/3 = settings: clinical results shown at AACR April 2022; cited from earlier work
[1] = biological target: T1, B7H3 on tumor cells (MCF-7, A549, PC-3) (human) (UniProt Q5ZPR3); test: flow cytometry on MCF-7 tumor cells
T1 sequence (looked up): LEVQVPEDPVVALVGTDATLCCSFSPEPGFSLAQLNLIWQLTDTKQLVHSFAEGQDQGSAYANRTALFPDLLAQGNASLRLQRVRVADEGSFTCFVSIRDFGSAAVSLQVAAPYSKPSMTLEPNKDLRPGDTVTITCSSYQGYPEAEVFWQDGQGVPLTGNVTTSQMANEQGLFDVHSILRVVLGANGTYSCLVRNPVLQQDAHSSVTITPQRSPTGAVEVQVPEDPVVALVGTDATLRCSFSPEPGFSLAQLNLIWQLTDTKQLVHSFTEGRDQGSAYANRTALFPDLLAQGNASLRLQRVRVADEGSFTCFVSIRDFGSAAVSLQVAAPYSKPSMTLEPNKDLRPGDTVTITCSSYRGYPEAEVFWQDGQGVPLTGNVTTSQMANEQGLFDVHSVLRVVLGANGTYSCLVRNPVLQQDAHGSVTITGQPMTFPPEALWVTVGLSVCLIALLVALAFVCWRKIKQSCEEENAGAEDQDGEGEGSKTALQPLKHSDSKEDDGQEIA

[2] = biological target: T2, human B7H3-4IgG-his (human) (UniProt Q5ZPR3); test: ELISA, coated human B7H3-4IgG-his, anti-human Fc-HRP detection
T2 sequence: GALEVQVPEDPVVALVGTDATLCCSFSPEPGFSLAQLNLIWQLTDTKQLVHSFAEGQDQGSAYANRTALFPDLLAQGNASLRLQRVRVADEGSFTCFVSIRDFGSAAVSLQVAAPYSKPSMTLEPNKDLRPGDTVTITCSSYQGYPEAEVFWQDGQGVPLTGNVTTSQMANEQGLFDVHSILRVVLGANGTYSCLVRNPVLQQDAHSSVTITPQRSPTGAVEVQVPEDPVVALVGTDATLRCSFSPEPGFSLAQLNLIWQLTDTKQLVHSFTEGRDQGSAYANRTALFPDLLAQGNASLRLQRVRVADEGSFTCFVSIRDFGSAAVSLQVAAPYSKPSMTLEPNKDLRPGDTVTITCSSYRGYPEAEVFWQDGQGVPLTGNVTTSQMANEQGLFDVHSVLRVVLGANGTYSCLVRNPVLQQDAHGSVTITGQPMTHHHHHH

[3] = biological target: monkey B7H3-4IgG-his (monkey); test: ELISA, coated monkey B7H3-4IgG-his, anti-human Fc-HRP detection
[4] = biological target: monkey B7H3-4IgG-his (monkey); test: as above; remark: listed apart in the source
[5] = biological target: T1, B7H3 on tumor cells (MCF-7, A549, PC-3) (human); test: flow cytometry on A549 tumor cells
[6] = biological target: T1, B7H3 on tumor cells (MCF-7, A549, PC-3) (human); test: flow cytometry on PC-3 tumor cells
[7] = biological target: T1, B7H3 on tumor cells (MCF-7, A549, PC-3) (human); test: flow cytometry on A549 tumor cells; remark: listed apart in the source
[8] = biological target: T2, human B7H3-4IgG-his (human); test: ELISA, coated human B7H3-4IgG-his, anti-human Fc-HRP detection; remark: listed apart in the source
[9] = biological target: T1, B7H3 on tumor cells (MCF-7, A549, PC-3) (human); test: flow cytometry on MCF-7 tumor cells; remark: listed apart in the source

Which EC50 (N87 cells; 96 h) does the source give for CN(CCCc1ccc(C(F)(F)C(=O)NCc2ccc3c(c2)CN(C2CCC(=O)NC2=O)C3=O)cc1Cl)C(=O)CO (stereo not drawn) [PL-2] here?
The EC50 was 193 nM.

With CNCCOCCc1ccc(NC(=O)NCc2ccc3c(c2)CN(C2CCC(=O)NC2=O)C3=O)cc1Cl (stereo not drawn) [Control compound 1] as the molecule, how does the EC50 (N87 cells; 96 h) read?
Its EC50 is 572 nM.

And the EC50 (NUGC4 cells; Homo sapiens, NUGC-4, 96 h)?
Its EC50 is 345 nM.

What about the EC50 (MCF7 cells; Homo sapiens, MCF7, 96 h) of the same molecule?
Its EC50 is 983 nM.

Which “inhibitory activity on the proliferation of N87 cells (in words)” value (N87 cells) does the source give for CN(CCOCCc1ccc(NC(=O)NCc2ccc3c(c2)CN(C2CCC(=O)NC2=O)C3=O)cc1Cl)C(=O)CO (stereo not drawn) [PL-4, N-(2-chloro-4-(3-(2-(2,6-dioxopiperidin-3-yl)-1-oxoisoindolin-5-methyl)ureido)phenethoxy)ethyl-2-hydroxy-N-methylacetamide] here?
Its value is “significantly superior to that of control compound 1”.

What about the EC50 (N87 cells) of the same molecule?
The EC50 was 36.1 nM.

What about the “inhibitory activity on the proliferation of NUGC4 cells (in words)” value (NUGC4 cells) of the same molecule?
Its value is “significantly superior to that of control compound 1”.

And the EC50 (NUGC4 cells)?
The EC50 was 43.2 nM.

And the “inhibitory activity on the proliferation of MCF7 cells (in words)” value (MCF7 cells)?
The value was “significantly superior to that of control compound 1”.

And the EC50 (MCF7 cells)?
Its EC50 is 44.7 nM.

Which “inhibitory activity on the proliferation of N87 cells (in words)” value (N87 cells) does the source give for CN(CCCc1ccc(NC(=O)NCc2ccc3c(c2)CN(C2CCC(=O)NC2=O)C3=O)cc1Cl)C(=O)CO (stereo not drawn) [PL-1, N-(3-(2-chloro-4-(3-((2-(2,6-dioxopiperidin-3-yl)-1-oxoisoindolin-5-yl)methyl)ureido)phenyl)propyl)-2-hydroxy-N-methylacetamide] here?
The value was “significantly superior to that of control compound 1”.

What about the EC50 (N87 cells; 96 h) of the same molecule?
Its EC50 is 14.3 nM.

What about the “inhibitory activity on the proliferation of MCF7 cells (in words)” value (MCF7 cells) of the same molecule?
Its value is “significantly superior to that of control compound 1”.

And the EC50 (MCF7 cells; Homo sapiens, MCF7, 96 h)?
The EC50 was 62.1 nM.

For O=C1CC[C@H](N2C(=O)c3cccc4c(Cc5ccc(CN6CCOCC6)cc5)ccc2c34)C(=O)N1 [CFT7455], which “dose-limiting toxicity in the clinic” value (IKZF1/3) is on record?
The value was “decreased neutrophil was dose-limiting”.

Which EC50 (N87 cells; 96 h) does the source give for CN(CCCc1ccc(NC(=O)NCc2ccc3c(c2)CN(C2CCC(=O)NC2=O)C3=O)cc1)C(=O)CO (stereo not drawn) [PL-5, N-(3-(4-(3-(2-(2,6-dioxopiperidin-3-yl)-1-oxoisoindolin-5-methyl)ureido)phenyl)propyl)-2-hydroxy-N-methylacetamide] here?
The EC50 was 1590 nM.

And the EC50 (NUGC4 cells; Homo sapiens, NUGC-4, 96 h)?
The EC50 was 502 nM.

What about the EC50 (MCF7 cells; Homo sapiens, MCF7, 96 h) of the same molecule?
Its EC50 is 228 nM.

For CN(CCCc1ccc(NC(=O)NCc2ccc3c(c2)C(=O)N(C2CCC(=O)NC2=O)C3=O)cc1Cl)C(=O)CO (stereo not drawn) [PL-3, N-(3-(2-chloro-4-(3-((2-(2,6-dioxopiperidin-3-yl)-1,3-dioxoisoindol-5-yl)methyl)ureido)phenyl)propyl)-2-hydroxy-N-methylacetamide], which EC50 (N87 cells; 96 h) is on record?
The EC50 was 851 nM.

B1: B7H3-C1 antibody (antibody, INN chains, looked up, V domains shown)
VH: QVQLVQSGAEVKKPGSSVKVSCKASGYTFTNYVMHWVRQAPGQGLEWMGYINPYNDDVKYNEKFKGRVTITADESTSTAYMELSSLRSEDTAVYYCARWGYYGSPLYYFDYWGQGTLVTVSS
VL: EIVLTQSPATLSLSPGERATLSCRASSRLIYMHWYQQKPGQAPRPLIYATSNLASGIPARFSGSGSGTDFTLTISSLEPEDFAVYYCQQWNSNPPTFGQGTKVEIK
Which EC50 [1] does the source give for B1 here?
Its EC50 is 1.36 nM.

And the Maximum MFI [1]?
The Maximum MFI was 63200.

What about the EC50 [2] of the same molecule?
The EC50 was 0.0519 nM.

What about the EC50 [3] of the same molecule?
Its EC50 is 0.167 nM.

And the EC50 [4]?
Its EC50 is 3.92 nM.

What about the EC50 [5] of the same molecule?
The EC50 was 1.05 nM.

And the Maximum MFI [5]?
The Maximum MFI was 48000.

What about the EC50 [6] of the same molecule?
The EC50 was 0.618 nM.

And the Maximum MFI [6]?
Its Maximum MFI is 6440.

What about the EC50 [7] of the same molecule?
Its EC50 is 1.86 nM.

And the Maximum MFI [7]?
Its Maximum MFI is 8270.

And the EC50 [8]?
The EC50 was 0.048 nM.

And the EC50 [9]?
The EC50 was 1.71 nM.

And the Maximum MFI [9]?
Its Maximum MFI is 84000.
